Reference: patent US20250101338A1, “BIOMASS DERIVED SURFACE-ACTIVE COMPOSITIONS AND PRODUCTS” (Cambridge Glycoscience Ltd, priority 2021, published 2025)

Tests used:
[1] = Water in oil emulsion stability test (Example 65); type: physicochemical; details: 0.5 mL water with 2 wt % substance + 1.5 mL sunflower oil, vortex 30 s, visual inspection
Procedure: 0.5 mL deionized water containing 2 wt % of the stated inventive or comparative compound was added to 1.5 mL commercial, food-grade sunflower oil, in a sample vial. The vials were each agitated with a IKA Vortex mixture for 30 seconds. The vials were left to stand and inspected visually for emulsion quality after 5 minutes, 1 hour, 4 hours and finally 24 h (FIG. 14 and FIG. 15). […] The results also show an unexpected increase in emulsifying performance for the inventive compositions comprising oligosaccharide mixture-derived surface-active agents (such as example 4-6 compositions) compared with those derived from a single monomeric sugar (xylose) alone (such as example 12 and 13 compositions).

[2] = Dynamic foam tests (Example 69); type: physicochemical; details: 5 mL of 0.5 wt % aqueous solution, 40 cm^3 air bubbled at 17 cm^3/min
Procedure: The intensity and approximate decay-rate for the foaming behavior of the surface-active compositions in dilute aqueous solution was determined by dosing 5 mL of 0.5 wt % aqueous solution of surface-active composition to a vertically-aligned 50 m plastic serological pipette (“Stripette”). Air (40 cm^3) was bubbled through the surface-active composition solution at a rate of 17 cm^3/min via a syringe pump and the foam height upon complete addition of air recorded. The foam height was also recorded again 5 min after complete addition of air, 10 min after complete addition of air, 15 m after complete addition of air, 30 min after complete addition of air, 1 hour after complete addition of air and finally 2 hours after complete addition of air.

[3] = Relative viscosity, gravity flow time (Example 74); type: physicochemical; details: 10 mL of 10 wt % sodium dodecyl sulfate + 0.3 g NaCl + 0.655 mL of 30 wt % test solution, 27° C., triplicate
Procedure: The time taken for precisely 3 mL of testing mixture to pass out of the […] by gravity was recorded. The test was repeated in triplicate. Averaged results are depicted in FIG. 20 and table 9. It was unexpected that example 11 composition recorded such high viscosity over example 14 composition, which differs by a slightly smaller alkyl chain (octyl instead of decyl).

[4] = Lipophilic substances solubilization test, lemongrass oil (Example 71); type: physicochemical; details: 2 mL of 5 wt % aqueous solution, stepwise addition of 2.5 μL, duplicate
Procedure: (§1) After each addition, the sample was agitated with a vortex mixture for 60 s and left to stand for 5 min. If no heterogenous phase was observed visually, the oil was said to be fully soluble. If a heterogenous, immiscible biphasic or emulsion was visible, then the saturation limit for that surface-active component was said to have been exceeded. Each surface-active composition was tested in duplicate.

Zein = Zein solubilization test, irritation potential (Example 68); details: 25 mg zein in 1 mL of 1 wt % active surfactant solution, 30 min, BCA assay, triplicate
Procedure: Zein is a water-insoluble corn protein, structurally similar to keratin. The ability of a surfactant to solubilize zein is related to irritation potential. The more zein solubilized, the more irritating the product is deemed to be, according to this test. […] The solutions were centrifuged, and the protein concentration in the supernatant determined by BCA assay. Each surfactant was tested in triplicate. Protein content was determined from a bovine serum albumin (BSA) standard curve.

[5] = Flash foam generation test (Example 70); type: physicochemical; details: 20 mg in 4 mL deionized water (10 wt % [sic]), 2 mL shaken 30 s in 15 mL tube, duplicate average
Procedure: 20 mg of each surface-active composition for testing was dissolved in deionized water (4 mL) to give a 10 wt % solution, 2 mL was added to a 15 mL FALCON tube. Each falcon tube was secured in a holder before being vigorously shook for 30 seconds. The initial foam height and structure was noted. The foam height was then noted at 5 min, 10 min, 15 min, 30 min, 45 min, 1 hr and 2 hr after the initial measurement. The experiment was repeated in duplicate. Averaged results are depicted in table 5 and FIG. 11.

[6] = Lipophilic substances solubilization test, preservative P12 (Example 72); type: physicochemical; details: 2 mL of 5 wt % aqueous solution, stepwise addition of 10 μL, duplicate
Procedure: as §1, with “heterogenous phase” for “heterogenous, immiscible biphasic”

[7] = Aqueous solubility noted at preparation; type: physicochemical; details: water, room temperature
Procedure: Solid N-decyl xylosylamine (7.6 g) was suspended in 2-propanol (60 mL) and triethylamine (2 equiv.) then acetic anhydride (1.6 equiv.) was added slowly. Stirring continued at ambient temperature for 10 h. Water (50 mL) was added, and the mixture stirred for 5 min. Dichloromethane (50 mL) was added and the phases separated. The aqueous phase was extracted with additional DCM. The combined organic phase washed with saturated aqueous NH4Cl solution, then the aqueous phase extracted with additional DCM. The combined organic phases were dried over anhydrous magnesium sulfate, filtered, then concentrated under reduced pressure to give a yellow oil. The oil was purified by FCC eluting with MeOH (2-15%) in DCM (120 g normal phase silica cartridge with wet loading). Fractions containing the product were combined and evaporated to dryness to give the desired product (4.1 g, 49%) as a yellow gum. LC-MS (Method A), Rt=1.69 min, [M+H]+=332.2. The gum product can be dissolved in water to form solutions of 50 wt % or greater.
The process was carried out in essentially the same manner as in Example 11 a) step (ii) but using the solid product of Example 11 reaction c) step (i) and the crude product was instead purified by FCC eluting with MeOH (2-13%) in DCM. There were obtained 1.4 g of cream gum product. LC-MS (Method A), Rt=1.87 min, [M+H]^+=360.5.

[8] = Critical micellular concentration determination (Example 78); type: physicochemical; details: deionized water
Procedure: Stock solutions were prepared of known weight concentration (range spanning 0.005 wt %-5.000 wt %) of inventive surface-active compositions (by solution of the appropriate weight of example composition in deionized water). For reference, the surface tension of deionized water in the absence of a surface-active composition is 73 mN. […] The surface tensions of the solutions at the concentration of the CMC were also noted. Results are shown in table 10 and graphical results are depicted in FIG. 22.

Row | Molecule | Time inspected by which the emulsion first appeared dispersed [1] | Average time (for 3 mL to pass out of the stripette by gravity) [3] | Maximum volume of lemongrass oil solubilized [4] | Volume of foam after given time ([5]; 0 min) | Volume of foam after given time ([5]; 5 min) | Volume of foam after given time ([5]; 15 min) | Volume of foam after given time ([5]; 30 min) | Volume of foam after given time ([5]; 1 h) | Volume of foam after given time ([5]; 2 h) | other results
1 | CCCCCCCCCCCCO[C@@H]1O[C@H](CO)[C@@H](O)[C@H](O)[C@H]1O [Dodecyl Glucoside, reference compound] | 12 h | 4.0 s |  |  |  |  |  |  |  | Volume of foam after given time ([2]; 0 min): 42.3 cm^3; Volume of foam after given time ([2]; 5 min): 42.3 cm^3; Volume of foam after given time ([2]; 15 min): 42.3 cm^3; Volume of foam after given time ([2]; 30 min): 42.3 cm^3; Volume of foam after given time ([2]; 1 h): 42.0 cm^3; Volume of foam after given time ([2]; 2 h): 42.0 cm^3
2 | CCCCCCCCCCCCCCN(C(C)=O)C1OC[C@@H](O)[C@H](O)[C@H]1O (stereo partly shown) [Example 12 composition, N-tetradecyl N-acetyl xylosylamine] | 1 h |  |  |  |  |  |  |  |  | 
3 | CCCCCCCCN(C(C)=O)C1OC[C@@H](O)[C@H](O)[C@H]1O (stereo partly shown) [Example 14 composition, N-octyl N-acetyl xylosylamine] | 0.083 h | 10.0 s | 5.0 µL |  |  |  |  |  |  | 
4 | Lauryl glucoside |  | 1.9 s |  |  |  |  |  |  |  | 
5 | O=C[C@H](O)[C@@H](O)[C@H](O)CO [Xylose, reference compound] | <0.083 h |  |  |  |  |  |  |  |  | 
6 | Cocoamidopropyl betaine |  | 524.0 s |  |  |  |  |  |  |  | 

Second part, led by results:

Row | Time inspected by which the emulsion first appeared dispersed [1] | Average time (for 3 mL to pass out of the stripette by gravity) [3] | Maximum volume of lemongrass oil solubilized [4] | Volume of foam after given time ([5]; 0 min) | Volume of foam after given time ([5]; 5 min) | Volume of foam after given time ([5]; 15 min) | Volume of foam after given time ([5]; 30 min) | Volume of foam after given time ([5]; 1 h) | Volume of foam after given time ([5]; 2 h) | Molecule | other results
7 | 24 h |  | 2.5 µL | 12.0 cm^3 | 12.0 cm^3 | 11.8 cm^3 | 11.5 cm^3 | 11.5 cm^3 | 11.0 cm^3 | CCCCCCCCCCO[C@@H]1O[C@H](CO)[C@@H](O)[C@H](O)[C@H]1O [Decyl glucoside, reference compound] | Resulting zein concentration solubilized (Zein): 1129 µg/mL; Maximum volume of preservative P12 solubilized [6]: 40 µL
8 | 1 h |  | 5.0 µL |  |  |  |  |  |  | CCCCCCCCCCCCN(C(C)=O)C1OC[C@@H](O)[C@H](O)[C@H]1O (stereo partly shown) [Example 13 composition, N-dodecyl N-acetyl xylosylamine] | Aqueous solubility (in words) [7]: only sparingly soluble
9 |  |  |  | 3.5 cm^3 | 3.5 cm^3 | 3.5 cm^3 | 3.0 cm^3 | 2.8 cm^3 | 2.5 cm^3 | CCCCCCCCCCCCN(C(C)=O)C1O[C@H](CO)[C@@H](O[C@@H]2O[C@H](CO)[C@@H](O)[C@H](O)[C@H]2O)[C@H](O)[C@H]1O (stereo partly shown) [Example 23 composition, N-dodecyl N-acetyl cellobiosylamine] | Volume of foam after given time ([2]; 0 min): 38.5 cm^3; Volume of foam after given time ([2]; 5 min): 4.0 cm^3; Volume of foam after given time ([2]; 15 min): 4.0 cm^3; Volume of foam after given time ([2]; 30 min): 4.0 cm^3; Volume of foam after given time ([2]; 1 h): 3.0 cm^3; Volume of foam after given time ([2]; 2 h): 3.0 cm^3; Solution Surface tension at CMC [8]: 45 mN; CMC ([8]; from surface tension at 0.005-5.000 wt %): 0.03 wt %
10 | 1 h |  |  | 15.0 cm^3 | 15.0 cm^3 | 15.0 cm^3 | 15.0 cm^3 | 15.0 cm^3 | 14.0 cm^3 | CCCCCCCCCCCCOS(=O)(=O)[O-].[Na+] [Sodium dodecyl sulfate, reference compound] | 
